ChEMBL document CHEMBL1122746, “Tumor inhibitory triazenes. 3. Dealkylation within an homologous series and its relation to antitumor activity” (J Med Chem, 1984)

Key:
[1] = tested on: Mus musculus; assay: Antitumor activity is evaluated as the percent increase in lifespan of TLX/5 tumor bearing animals at 100 mg/kg, daily x 5; type: functional
[2] = tested on: Mus musculus; assay: Antitumor activity is evaluated as the percent increase in lifespan of TLX/5 tumor bearing animals at 12.5 mg/kg, daily x 5; type: functional
[3] = tested on: Mus musculus; assay: Antitumor activity is evaluated as the percent increase in lifespan of TLX/5 tumor bearing animals at 200 mg/kg, daily x 5; type: functional
[4] = tested on: Mus musculus; assay: Antitumor activity is evaluated as the percent increase in lifespan of TLX/5 tumor bearing animals at 25 mg/kg, daily x 5; type: functional
[5] = tested on: Mus musculus; assay: Antitumor activity is evaluated as the percent increase in lifespan of TLX/5 tumor bearing animals at 400 mg/kg, daily x 5; type: functional
[6] = tested on: Mus musculus; assay: Antitumor activity is evaluated as the percent increase in lifespan of TLX/5 tumor bearing animals at 50 mg/kg, daily x 5; type: functional
[7] = organism: Mus musculus; assay: (§1) Compound is evaluated in vitro for percent metabolism by mouse liver microsomes; type: functional; set-up: concentration or dose not given beside the values
[8] = organism: Mus musculus; assay: (§2) Compound is evaluated in vitro for percent dealkylation by mouse liver microsomes; type: functional; set-up: concentration or dose not given beside the values
[9] = organism: Mus musculus; assay: Compound is evaluated in vitro for percent demethylation by mouse liver microsomes; type: functional
[10] = organism: Mus musculus; assay: Compound is evaluated for maximum percentage of increase in life span (ILS) in tumor bearing mice
[11] = Partition coefficient (logP); type: physicochemical; settings: octanol/water
[12] = organism: Mus musculus; assay: as §2; type: functional
[13] = organism: Mus musculus; assay: as §1; type: functional

## CCCN(C)/N=N/c1ccc(C(N)=O)cc1
[1]
  Increase: 41%
[2]
  Increase: 7%
[3]
  Increase: 20%
[4]
  Increase: 113%
[5]
  Increase: -45%
[6]
  Increase: 60%
[7]
  Activity: 58.3%
[8]
  Activity: 33%
[9]
  Activity: 25.3%
[10]
  max % ILS per µmol/kg: 0.996 %·kg/µmol

## CCCCCCN(C)/N=N/c1ccc(C(N)=O)cc1
[1]
  Increase: 83%
[2]
  Increase: 4%
[3]
  Increase: 56%
[4]
  Increase: 9%
[5]
  Increase: 30%
[6]
  Increase: 11%
[7]
  Activity: 27%
[8]
  Activity: 14%
[9]
  Activity: 13%
[10]
  max % ILS per µmol/kg: 0.218 %·kg/µmol

## CCC(C)CN(C)/N=N/c1ccc(C(=O)O)cc1 (stereo not drawn)
[11]; read-out: logP
  logP: 1.33

## CCCCCCCN(C)/N=N/c1ccc(C(N)=O)cc1
[1]
  Increase: 65%
[2]
  Increase: 2%
[3]
  Increase: 15%
[4]
  Increase: 6%
[5]
  Increase: -20%
[6]
  Increase: 15%
[9]
  Activity: 11%
[12]
  Activity: 12%
[13]
  Activity: 23%
[10]
  max % ILS per µmol/kg: 0.18 %·kg/µmol

## CCN(C)/N=N/c1ccc(C(N)=O)cc1
[11]; read-out: logP
  logP: 1.7
[1]
  Increase: 76%
[2]
  Increase: 7%
[3]
  Increase: -31%
[4]
  Increase: 84%
[5]
  Increase: -49%
[6]
  Increase: 100%
[7]
  Activity: 61.8%
[8]
  Activity: 33.7%
[9]
  Activity: 28.2%
[10]
  max % ILS per µmol/kg: 0.693 %·kg/µmol

## CC(C)N(C)/N=N/c1ccc(C(=O)O)cc1
[11]; read-out: logP
  logP: 0.34

## CN(C)/N=N/c1ccc(C(N)=O)cc1
[1]
  Increase: 51%
[2]
  Increase: 94%
[3]
  Increase: -7%
[4]
  Increase: 47%
[5]
  Increase: -26%
[6]
  Increase: 65%
[7]
  Activity: 57.3%
[8]
  Activity: 1.8%
[9]
  Activity: 55.5%
[10]
  max % ILS per µmol/kg: 1.45 %·kg/µmol

## CCCCCCCN(C)/N=N/c1ccc(C(=O)O)cc1
[11]; read-out: logP
  logP: 2.58

## CCCCCN(C)/N=N/c1ccc(C(=O)O)cc1
[11]; read-out: logP
  logP: 1.49

## CN(/N=N/c1ccc(C(N)=O)cc1)C(C)(C)C
[1]
  Increase: 0%
[2]
  Increase: 4%
[3]
  Increase: 0%
[4]
  Increase: -4%
[6]
  Increase: -2%

## CN(O)/N=N/c1ccc(C(N)=O)cc1
[1]
  Increase: 19%
[3]
  Increase: 37%
[5]
  Increase: 55%
[6]
  Increase: 19%
[10]
  max % ILS per µmol/kg: 0.036 %·kg/µmol

## CC(C)N(C)/N=N/c1ccc(C(N)=O)cc1
[11]; read-out: logP
  logP: 2
[1]
  Increase: 41%
[2]
  Increase: 21%
[3]
  Increase: -10%
[4]
  Increase: 52%
[5]
  Increase: -60%
[6]
  Increase: 45%
[10]
  max % ILS per µmol/kg: 0.458 %·kg/µmol

## CN(C)/N=N/c1ccc(C(=O)O)cc1
[11]
  logP: -0.44

## CCCCN(C)/N=N/c1ccc(C(=O)O)cc1
[11]; read-out: logP
  logP: 0.97

## C=CCN(C)/N=N/c1ccc(C(=O)O)cc1
[11]; read-out: logP
  logP: 0.32

## C#CCN(C)/N=N/c1ccc(C(=O)O)cc1
[11]; read-out: logP
  logP: 0

## CCN(C)/N=N/c1ccc(C(=O)O)cc1
[11]; read-out: logP
  logP: 0.04

## CCCN(C)/N=N/c1ccc(C(=O)O)cc1
[11]; read-out: logP
  logP: 0.46

## CCCCCCCCN(C)/N=N/c1ccc(C(=O)O)cc1
[11]; read-out: logP
  logP: 2.77

## CCCCN(C)/N=N/c1ccc(C(N)=O)cc1
[11]; read-out: logP
  logP: 2.46
[1]
  Increase: 83%
[2]
  Increase: 18%
[3]
  Increase: -12%
[4]
  Increase: 23%
[5]
  Increase: -51%
[6]
  Increase: 91%
[7]
  Activity: 55%
[8]
  Activity: 33.5%
[9]
  Activity: 21.5%
[10]
  max % ILS per µmol/kg: 0.426 %·kg/µmol

## CCCCCCCCCCCCN(C)/N=N/c1ccc(C(N)=O)cc1
[1]
  Increase: -1%
[2]
  Increase: 1%
[3]
  Increase: 13%
[4]
  Increase: 3%
[5]
  Increase: 9%
[6]
  Increase: 3%
[10]
  max % ILS per µmol/kg: 0.023 %·kg/µmol

## CN(Cc1ccccc1)/N=N/c1ccc(C(N)=O)cc1
[1]
  Increase: 9%
[2]
  Increase: -3%
[3]
  Increase: 86%
[4]
  Increase: -1%
[5]
  Increase: -36%
[6]
  Increase: 3%
[10]
  max % ILS per µmol/kg: 0.145 %·kg/µmol

## CCCCCCN(C)/N=N/c1ccc(C(=O)O)cc1
[11]; read-out: logP
  logP: 1.95

## CCN(CC)/N=N/c1ccc(C(N)=O)cc1
[7]
  Activity: 53.3%
[8]
  Activity: 53.3%
[9]
  Activity: 0%

## CON(C)/N=N/c1ccc(C(N)=O)cc1
[1]
  Increase: -3%
[2]
  Increase: -3%
[3]
  Increase: -7%
[4]
  Increase: -3%
[5]
  Increase: -3%
[6]
  Increase: -5%

## CCCCCN(C)/N=N/c1ccc(C(N)=O)cc1
[1]
  Increase: 71%
[2]
  Increase: 3%
[3]
  Increase: -28%
[4]
  Increase: 7%
[5]
  Increase: -51%
[6]
  Increase: 79%
[7]
  Activity: 41.5%
[8]
  Activity: 23.5%
[9]
  Activity: 18%
[10]
  max % ILS per µmol/kg: 0.392 %·kg/µmol

## CN(CCO)/N=N/c1ccc(C(N)=O)cc1
[1]
  Increase: 7%
[2]
  Increase: 1%
[3]
  Increase: 42%
[4]
  Increase: 0%
[5]
  Increase: 38%
[6]
  Increase: 5%
[10]
  max % ILS per µmol/kg: 0.047 %·kg/µmol

## CCCCCCCCN(C)/N=N/c1ccc(C(N)=O)cc1
[11]; read-out: logP
  logP: 4.7
[1]
  Increase: 19%
[2]
  Increase: -2%
[3]
  Increase: 112%
[4]
  Increase: 4%
[5]
  Increase: 56%
[6]
  Increase: 4%
[7]
  Activity: 19.5%
[8]
  Activity: 8%
[9]
  Activity: 11.5%
[10]
  max % ILS per µmol/kg: 0.163 %·kg/µmol
